In ChEMBL document CHEMBL1201862, “PubChem BioAssay data set” (2004):
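Test compounds were applied to cells in 96-well plates for 48 hours at 5 doses. GI50 is the concentration that inhibits growth by half.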 The source made the active and inactive calls. No stated cut-off is given here; in the data, active = GI50 up to about 1.1 µM and inactive = higher.

Key:
Test in all cases: growth of human tumour cells (NCI), 48 h
MDA-MB-435 = system: MDA-MB-435
HCC 2998 = system: HCC 2998
SF-539 = system: SF-539
MOLT-4 = system: MOLT-4
PC-3 = system: PC-3
HCT-116 = system: HCT-116
DU-145 = system: DU-145
CCRF-CEM = system: CCRF-CEM
OVCAR-3 = system: OVCAR-3
SNB-19 = system: SNB-19
A549 = system: A549
UACC-62 = system: UACC-62
SK-MEL-28 = system: SK-MEL-28
786-0 = system: 786-0
HCT-15 = system: HCT-15
MCF7 = system: MCF7
KM12 = system: KM12
SF-268 = system: SF-268
UACC-257 = system: UACC-257
MDA-N = system: MDA-N
HOP-92 = system: HOP-92
LOX IMVI = system: LOX IMVI
ACHN = system: ACHN
OVCAR-5 = system: OVCAR-5
EKVX = system: EKVX
NCI-H23 = system: NCI-H23
SK-MEL-2 = system: SK-MEL-2
U-251 = system: U-251
Malme-3M = system: Malme-3M
SNB-75 = system: SNB-75
TK-10 = system: TK-10
IGROV-1 = system: IGROV-1
NCI-H226 = system: NCI-H226
OVCAR-4 = system: OVCAR-4
SF-295 = system: SF-295
NCI-H460 = system: NCI-H460
K562 = system: K562
NCI-H522 = system: NCI-H522
NCI/ADR-RES = system: NCI/ADR-RES
SN12C = system: SN12C
HT-29 = system: HT-29
COLO 205 = system: COLO 205
HL-60 = system: HL-60
T47D = system: T47D
OVCAR-8 = system: OVCAR-8
Hs-578T = system: Hs-578T
CAKI-1 = system: CAKI-1
SK-OV-3 = system: SK-OV-3
A498 = system: A498
M14 = system: M14
BT-549 = system: BT-549
MDA-MB-231 = system: MDA-MB-231
SK-MEL-5 = system: SK-MEL-5
UO-31 = system: UO-31
RPMI-8226 = system: RPMI-8226
SW-620 = system: SW-620
HOP-62 = system: HOP-62
RXF 393 = system: RXF 393

SMILES: OCc1cc2c([nH]c3ccccc32)c(C(O)CO)n1 (configuration not stated)
- GI50 (MDA-MB-435): > 100 µM (inactive)
- GI50 (HCC 2998): > 100 µM (inactive)
- GI50 (SF-539): > 100 µM (inactive)
- GI50 (MOLT-4): > 100 µM (inactive)
- GI50 (PC-3): > 100 µM (inactive)
- GI50 (HCT-116): > 100 µM (inactive)
- GI50 (DU-145): > 100 µM (inactive)
- GI50 (CCRF-CEM): > 100 µM (inactive)
- GI50 (OVCAR-3): > 100 µM (inactive)
- GI50 (SNB-19): > 100 µM (inactive)
- GI50 (A549): > 100 µM (inactive)
- GI50 (UACC-62): > 100 µM (inactive)
- GI50 (SK-MEL-28): > 100 µM (inactive)
- GI50 (786-0): > 100 µM (inactive)
- GI50 (HCT-15): > 100 µM
- GI50 (MCF7): > 100 µM (inactive)
- GI50 (KM12): > 100 µM (inactive)
- GI50 (SF-268): > 100 µM (inactive)
- GI50 (UACC-257): > 100 µM (inactive)
- GI50 (MDA-N): > 100 µM (inactive)
- GI50 (HOP-92): > 100 µM (inactive)
- GI50 (LOX IMVI): > 100 µM (inactive)
- GI50 (ACHN): > 100 µM (inactive)
- GI50 (OVCAR-5): > 100 µM (inactive)
- GI50 (EKVX): > 100 µM (inactive)
- GI50 (NCI-H23): > 100 µM (inactive)
- GI50 (SK-MEL-2): > 100 µM (inactive)
- GI50 (U-251): > 100 µM (inactive)
- GI50 (Malme-3M): > 100 µM (inactive)
- GI50 (SNB-75): > 100 µM (inactive)
- GI50 (TK-10): > 100 µM (inactive)
- GI50 (IGROV-1): > 100 µM (inactive)
- GI50 (NCI-H226): > 100 µM (inactive)
- GI50 (OVCAR-4): > 100 µM (inactive)
- GI50 (SF-295): > 100 µM (inactive)
- GI50 (NCI-H460): > 100 µM (inactive)
- GI50 (K562): > 100 µM (inactive)
- GI50 (NCI-H522): > 100 µM (inactive)
- GI50 (NCI/ADR-RES): > 100 µM (inactive)
- GI50 (SN12C): > 100 µM (inactive)
- GI50 (HT-29): > 100 µM (inactive)
- GI50 (COLO 205): > 100 µM (inactive)
- GI50 (HL-60): > 100 µM (inactive)
- GI50 (T47D): > 100 µM (inactive)
- GI50 (OVCAR-8): > 100 µM (inactive)
- GI50 (Hs-578T): > 100 µM (inactive)
- GI50 (CAKI-1): > 100 µM (inactive)
- GI50 (SK-OV-3): > 100 µM (inactive)
- GI50 (A498): > 100 µM (inactive)
- GI50 (M14): > 100 µM (inactive)
- GI50 (BT-549): > 100 µM (inactive)
- GI50 (MDA-MB-231): > 100 µM (inactive)
- GI50 (SK-MEL-5): > 100 µM (inactive)
- GI50 (UO-31): > 100 µM (inactive)
- GI50 (RPMI-8226): > 100 µM (inactive)
- GI50 (SW-620): > 100 µM (inactive)

SMILES: CC(=O)O[C@H]1CC[C@H]2[C@@H]3CCC4=C/C(=N/OCCN(C)C)CC[C@]4(C)[C@H]3CC[C@]12C
- GI50 (MDA-MB-435): 2.19 µM (inactive)
- GI50 (HCC 2998): 6.43 µM (inactive)
- GI50 (SF-539): 2.52 µM (inactive)
- GI50 (MOLT-4): 5.42 µM (inactive)
- GI50 (PC-3): 12.5 µM (inactive)
- GI50 (HCT-116): 4.25 µM (inactive)
- GI50 (DU-145): 16.1 µM (inactive)
- GI50 (CCRF-CEM): 2.52 µM (inactive)
- GI50 (OVCAR-3): 12.8 µM (inactive)
- GI50 (SNB-19): 7.59 µM (inactive)
- GI50 (A549): 12 µM (inactive)
- GI50 (HOP-62): 13.4 µM (inactive)
- GI50 (UACC-62): 10.7 µM (inactive)
- GI50 (SK-MEL-28): 14.6 µM (inactive)
- GI50 (786-0): 8.17 µM (inactive)
- GI50 (HCT-15): 2.22 µM
- GI50 (MCF7): 5.64 µM (inactive)
- GI50 (KM12): 5.61 µM (inactive)
- GI50 (SF-268): 13.1 µM (inactive)
- GI50 (UACC-257): 7.38 µM (inactive)
- GI50 (MDA-N): 3.65 µM (inactive)
- GI50 (LOX IMVI): 3.16 µM (inactive)
- GI50 (ACHN): 13.4 µM (inactive)
- GI50 (OVCAR-5): 16.9 µM (inactive)
- GI50 (EKVX): 14.4 µM (inactive)
- GI50 (RXF 393): 12 µM (inactive)
- GI50 (NCI-H23): 12.9 µM (inactive)
- GI50 (SK-MEL-2): 11 µM (inactive)
- GI50 (U-251): 13.3 µM (inactive)
- GI50 (Malme-3M): 13.3 µM (inactive)
- GI50 (SNB-75): 6.68 µM (inactive)
- GI50 (TK-10): 11.3 µM (inactive)
- GI50 (IGROV-1): 13.1 µM (inactive)
- GI50 (NCI-H226): 3.8 µM (inactive)
- GI50 (OVCAR-4): 10.9 µM (inactive)
- GI50 (SF-295): 5.41 µM (inactive)
- GI50 (NCI-H460): 8.22 µM (inactive)
- GI50 (K562): 2.11 µM (inactive)
- GI50 (NCI-H522): 6.87 µM (inactive)
- GI50 (NCI/ADR-RES): 12.6 µM (inactive)
- GI50 (SN12C): 16.9 µM (inactive)
- GI50 (HT-29): 2.06 µM (inactive)
- GI50 (COLO 205): 2.27 µM (inactive)
- GI50 (HL-60): 1.88 µM (inactive)
- GI50 (T47D): 5.81 µM (inactive)
- GI50 (OVCAR-8): 13.4 µM (inactive)
- GI50 (Hs-578T): 13.5 µM (inactive)
- GI50 (CAKI-1): 14 µM (inactive)
- GI50 (SK-OV-3): 12.2 µM (inactive)
- GI50 (M14): 3.18 µM (inactive)
- GI50 (BT-549): 12.8 µM (inactive)
- GI50 (MDA-MB-231): 20.2 µM (inactive)
- GI50 (SK-MEL-5): 4.58 µM (inactive)
- GI50 (UO-31): 14.9 µM (inactive)
- GI50 (RPMI-8226): 1.2 µM (inactive)
- GI50 (SW-620): 9.51 µM (inactive)
